The test system of data set [1] is p-glycoprotein. The conditions noted are these: cited from earlier work.
The conditions of data set [2]: cited from earlier work.
In data set [3] the test system is BCRP. Particulars: cited from earlier work.
The nature of data set [4]: Pharmacokinetic studies of crizotinib and dasatinib in patients. The format is in vivo, human.
In data set [5] the test system is ERK (p-ERK/total ERK) in peripheral-blood mononuclear cells. Briefly: Total and phosphorylated ERK in PBMC before and 3 hours after dasatinib. The conditions noted are these: after dosing of dasatinib, paired samples. The class given is in vivo, human.
For data set [6] the following is noted: in the combination of dasatinib and crizotinib, administered once daily, children.

By Tmax is commonly meant the time at which the peak concentration occurs. Broadly, the half-life is the time needed for the level to fall by half in the phase considered. As for `Cc1nc(Nc2ncc(C(=O)Nc3c(C)cccc3Cl)s2)cc(N2CCN(CCO)CC2)n1` [Dasatinib], the substrate of p-glycoprotein entry in data set [1] was “substrate of p-glycoprotein”. Besides, the CNS penetration entry in data set [2] is recorded as “more limited than initially recognized”. Also, in data set [3], the “substrate of BCRP” value was “substrate of p-glycoprotein and BCRP”. In data set [4] (human, in vivo), the time of peak concentration (Tmax) amounted to 2.1 h and the half-life was 4.4 h. Besides, in data set [4] (human, in vivo, 50 mg/m2), the AUC0→t is on record as 593.8 (388.1 to 1,521.1) ng/mL/hr and the Cmax came out at 120 ng/mL. Also, in data set [4] (human, in vivo, 65 mg/m2), the AUC0→t is given as 863.9 (721.9 to 1,006) ng/mL/hr and the Cmax amounted to 210 ng/mL. Further, the apparent oral clearance in data set [4] (human, in vivo, po) was 1,328 mL/min/m^2. Moreover, the “change in ratio of p-ERK/total ERK in PBMC” value in data set [5] was “No statistically significant changes”. Moreover, the “maximum tolerated dose (MTD)” value in data set [6] stood at 50 mg/m^2.

Regarding `C[C@@H](Oc1cc(-c2cnn(C3CCNCC3)c2)cnc1N)c1c(Cl)ccc(F)c1Cl` [Crizotinib], in data set [2], the CNS penetration entry is “minimal and probably inadequate for the treatment of primary CNS cancers”. Further, the AUC0→t is recorded as 5,326.3 (2,068.3 to 12,182.9) ng/mL/hr in data set [4] (dose 215 mg/m^2, day 1, 8 patients, t=∞, median (range)) and 3,118.9 (1,693.8 to 4,278.5) ng/mL/hr in data set [4] (dose 215 mg/m^2, day 14, 4 patients, t=24 hours, median (range)). For the same molecule, in data set [4] (human, in vivo), the Tmax amounted to 4.1 h. For the same molecule, the Cmax was 155.5 (55.8 to 324.4) ng/mL in data set [4] (human, in vivo, 165 mg/m2) and 156 ng/mL in data set [4] (human, in vivo, 165 mg/m2, Cmax). Further, the half-life in data set [4] (human, in vivo, elimination half-life, crizotinib day 1 of therapy, 25 patients, median, range 9.8 to 34.7) was 13.1 h; in data set [4] (human, in vivo, elimination half-life, crizotinib day 14 of therapy, 19 patients, median, range 8.0 to 36.5), 12.8 h. Moreover, the “maximum tolerated dose (MTD)” value in data set [6] is 215 mg/m^2.

Values taken from article PMC5980705 (Pediatric blood & cancer, 2018).
